# Values quoted from earlier work, collected in patent publication US7718658B2 (priority 2004, dated 2010).
# Tested on: neuropathic pain
# Conditions: in vivo
smiles,measurement,value
NCC1(CC(=O)O)CCCCC1 [Gabapentin],share of patients in whom it works,60%
